Here are results for two compounds from EP0324875A1 (priority 1988, dated 1989).

Like-named read-outs stand apart in the source and are kept apart here.

Series [1] relates to Virus FPV (Stamm Weibridge). The class given is cell-based, Grippe-Virus A/H7N7/. The note with it: for inf. Titer in PBE/ml / XA-Titer: MOI = 0,5.
In the next series the test system is Grippe-Virus B/Lii. Briefly: One-cycle test, virus yield in calf kidney cell culture. The class given is cell-based. The note with it: MOI = 1. The source says: Bei den Mehrcyclen- und Eincyclustests werden einschichtige Zellkulturen einer embryonalen Kalbsniere verwendet, welche mit Grippe-Viren A/H3N2/Texas/77 und B/Lii/MOI = 0.01-0.5 und 1-10 entsprechend infiziert werden. Die Ausbeute an infektiösem und hämaglutinierendem Virus wird in der 24sten Stunde (bei einem Mehrcyclentest) und entsprechend in der zwölften bis fünfzehnten Stunde (bei einem Eincyclustest) ausgerechnet. Der infektiöse Titer wird EID₅₀/ml bestimmt. Dieselben Versuche werden auch mit Virus FPV (Stamm Weibridge) in Zellen EHF(bei Ausrechnung des infektiösen Virus Plaque-bildenden Einheiten und des hämaglutinierenden Virus) durchgeführt. Die Wirksamkeit der Verbindungen wird im Bezug auf die Kontrolle (ohne Inhibitoren) ausgerechnet.

The conditions of series [2]: DD-13 18,7 mg/kg.
The next series relates to Virus FPV. Briefly: organism not typed. The series is classed as cell-based, Grippe-Virus A/H7N7/. The note with it: 72 h; for Inhibitionsprozent (Verminderung der Plaquebildung): Zellen EHF.
Where [3] appears, read: read-out: Inhibitionsprozent (Verminderung der Plaquebildung).

Consider `O=C1NCCCN1CN1CCOCC1` [DD-13], for which, in series [1] (60 mkg/ml DD-13 alone), the “Verminderung der Ausbeute des hämaglutivierenden Virus (fold)” value is given as “viermalige”. Also, the “inf. Titer in PBE/ml” value in series [1] (DD-13 15 mkg/ml alone, control without inhibitors 1.7x10^7) is listed as 5x10^6 PBE/ml; in series [1] (DD-13 30 mkg/ml alone, control 1.7x10^7), 6,9x10^6 PBE/ml; in series [1] (DD-13 60 mkg/ml alone, control 1.7x10^7), 3,9x10^6 PBE/ml. Also, the XA-Titer in series [1] (DD-13 15 mkg/ml alone, control without inhibitors 2048) is given as 1024; in series [1] (DD-13 30 mkg/ml alone, control 2048), 512; in series [1] (DD-13 60 mkg/ml alone, control 2048), 256; with Grippe-Virus B/Lii (DD-13 12,5 (unit not given) alone, control without inhibitors 8), 8; in the series with Grippe-Virus B/Lii (DD-13 25 (unit not given) alone, control 8) it was 4; in the series on Grippe-Virus B/Lii (DD-13 50 (unit not given) alone, control 8), 4. For the same compound, the “inf. Titer in log. EID50/ml” value is recorded as 4,0 log. EID50/ml in the series with Grippe-Virus B/Lii (DD-13 12,5 (unit not given) alone, control without inhibitors 6,3); 2,5 log. EID50/ml in the series on Grippe-Virus B/Lii (DD-13 25 (unit not given) alone, control 6,3); 2,0 log. EID50/ml in the series on Grippe-Virus B/Lii (DD-13 50 (unit not given) alone, control 6,3). For the same compound, the “dose as fraction of LD50” value in series [2] was 1/213. Further, the inhibition at 10 µM with Virus FPV (setting [3]) is 2.3%. In the series with Virus FPV (setting [3]), the inhibition at 30 µM stood at 15.2%. Also, the inhibition at 100 µM in the series with Virus FPV (setting [3]) is 34.3%. Also, the inhibition at 300 µM in the series on Virus FPV (setting [3]) came out at 85%. In addition, the inhibition at 1000 µM with Virus FPV (setting [3]) came to 99.2%. Moreover, the “Inhibitionsprozent (Verminderung der Plaquebildung)” value in the series on Virus FPV (DD-13 3x10^-4 M/1 alone) was 85,00%.

For `CC(N)C12CC3CC(CC(C3)C1)C2` (stereo not drawn) [Rimantadin, reference compound], the “Verminderung der Ausbeute des hämaglutivierenden Virus (fold)” value in series [1] (5 mkg/ml Rimantadin alone) was determined as 64. Moreover, the “inf. Titer in PBE/ml” value was 4,2x10^4 PBE/ml in series [1] (Rim. 1 mkg/ml alone, control 1.7x10^7) and 4,4x10^4 PBE/ml in series [1] (Rim. 5 mkg/ml alone, control 1.7x10^7). Moreover, the XA-Titer amounted to 32 in series [1] (Rim. 1 mkg/ml alone, control 2048); 32 in series [1] (Rim. 5 mkg/ml alone, control 2048); 4 in the series with Grippe-Virus B/Lii (Rim. 5 mkg/ml alone, control 8); 4 with Grippe-Virus B/Lii (Rim. 25 mkg/ml alone, control 8). The “inf. Titer in log. EID50/ml” value in the series with Grippe-Virus B/Lii (Rim. 5 mkg/ml alone, control 6,3) is reported as 6,0 log. EID50/ml; in the series with Grippe-Virus B/Lii (Rim. 25 mkg/ml alone, control 6,3) it was 4,7 log. EID50/ml. Further, in the series with Virus FPV (setting [3]), the inhibition at 0.0001 µM worked out at 3.52%. Moreover, in the series on Virus FPV (setting [3]), the inhibition at 0.001 µM was determined as 18.4%. The inhibition at 0.01 µM with Virus FPV (setting [3]) amounted to 48%. Moreover, the “Inhibitionsprozent (Verminderung der Plaquebildung)” value in the series with Virus FPV (Rimantadin 10^-9 M/1 alone) is 18,37 ± 14,19%.
